US12662521B2, “Engineered osteocalcins for treating sarcopenia” (The Trustees of Columbia University in the City of New York, priority 2020, dated 2026)
“Also recorded” adds a separate entry of the source. Read-outs that look alike come from different tables or passages of the source.

How the values were obtained:
[1] = Table 1, drugs developed to target muscle mass; cited from earlier work
[2] = system: dexamethasone-treated mice; conditions: for running capacity / exercise / Muscle mass: dexamethasone-treated mice; for Muscle mass: oxidative, glycolytic and mixed muscles
Source text: It was also further examined whether an osteocalcin treatment might preserve muscle function and/or muscle mass in a clinically relevant mouse model of sarcopenia.
FIG. 9A and FIG. 9B show exemplary graphs pf exemplary modeling sarcopenia in mice.

young and older mice [3] = assay: exercise capacity of young and older mice given exogenous osteocalcin; format: in vivo; conditions: FIG. 1
Source text: Exemplary data showing that osteocalcin signaling in myofibers favors adaptation to exercise because it increases uptake and utilization of glucose into the tricarboxylic acid cycle and promotes fatty acids utilization are included in International Patent Application Publication WO 2016/081728, the disclosure of which is incorporated herein by reference. Osteocalcin signaling in myofibers is also the main determinant of the exercise-induced upregulation of Interleukin-6, a myokine that favors the generation of bioactive osteocalcin and of nutrients made available for myofibers. Furthermore, circulating osteocalcin levels decline steeply before mid-life and increase less during exercise in older than in younger mice. […] Thus, there is an osteocalcin-interleukin-6 axis that can be necessary to enhance muscle function during exercise and can be harnessed to reverse age-induced decline in exercise capacity.
Exemplary data showing that, by signaling in myofibers, osteocalcin favors adaptation to exercise because it promotes glucose uptake and utilization in the tricarboxylic acid (TCA) cycle as well as utilization of FAs are also included in International Patent Application Publication WO 2016/081728, the disclosure of which is incorporated herein by reference. […]

young and older mice [4] = conditions: exogenous osteocalcin, data of WO 2016/081728, cited from earlier work
Liver Factor 1 = Liver Factor 1 production during exercise; format: in vivo; conditions: FIG. 7
Source text: OCN signaling in the liver is required for exercise capacity (see FIG. 6). OCN enhances Liver Factor 1 production during exercise (see FIG. 7). Liver Factor 1 mediates OCN regulation of exercise capacity (see FIG. 8).

[5] = system: mice that received dexamethasone; assay: deleterious effect of dexamethasone on muscle function, osteocalcin given concomitantly or after two weeks of dexamethasone; format: in vivo
Dexamethasone mice = assay: another recognized model of sarcopenia: dexamethasone delivered by pumps for 28 days, muscle mass and treadmill running; format: in vivo; parameters: dose or concentration left out as unconfirmed; conditions: dexamethasone by pumps for 28 days; osteocalcin also by pumps

Molecule: N#Cc1ccc(N2CCC[C@@H]2[C@@H](O)C(F)(F)F)cc1C(F)(F)F [VK5211, reference compound]
- Muscle mass [1]: ✓
- running capacity / exercise [2]: only had a modest effect
- Muscle mass [2]: fully restored muscle mass to normal levels

Molecule: osteocalcin (YLGASVPSPDPLEPTREQCELNPACDELSDQYGLKTAYKRIYGITI; UniProt P86546 50-95, looked up) [a bone-derived hormone]
- age-related decline in exercise (young and older mice [3]): corrects
- exercise capacity of older mice (young and older mice [4]; 12 to 15 month-old mice): confers to 15 months-old mice exercise capacity of 3 month-old mice; also recorded: confers to 12 to 15 month-old mice the exercise capacity of 3 month-old mice
- exercise capacity of young mice (young and older mice [4]): increases the exercise capacity
- Liver Factor 1 production during exercise (Liver Factor 1): enhances
- performance compared with VK5211 ([2]; Dex-induced sarcopenia): outperforms
- IL-6 in Dex-induced sarcopenia ([2]; FIG. 12): favors IL-6
- running capacity / exercise [2]: fully rescued the running capacity
- Muscle mass ([2]; listed as OCN): marginal effect
- DEX toxicity ([2]; mouse, in vivo): does not interfere
- dexamethasone-induced immune suppression (circulating lymphocyte counts) ([2]; mouse, in vivo): did not interfere with nor did it exacerbate
- off-target effects ([2]; mouse, in vivo): no overt off-target effects
- deleterious effect of dexamethasone on muscle function ([5]; concomitant treatment with osteocalcin, 1 year-old mice): presented
- deleterious effect of dexamethasone on muscle function ([5]; osteocalcin administered in mice that had already received dexamethasone for two weeks): partially revert
- safety / negative side-effects (animal models): safe with no recorded negative side-effects
- Muscle mass (Dexamethasone mice): lost significantly less muscle mass
- exercise capacity (ability to run on a treadmill) (Dexamethasone mice): normal exercise capacity

Molecule: C[C@H](Nc1ccc(C#N)c(Cl)c1Cl)C(C)(C)O [GSK2849466, reference compound]
- Muscle mass [1]: ✓

Molecule: C[C@](O)(COc1ccc(C#N)cc1)C(=O)Nc1ccc(C#N)c(C(F)(F)F)c1 [Enbosarm, reference compound]
- Muscle mass [1]: ✓

Molecule: C[C@@H]1C[C@H]2[C@@H]3CCC4=CC(=O)C=C[C@]4(C)[C@@]3(F)[C@@H](O)C[C@]2(C)[C@@]1(O)C(=O)CO [dexamethasone, reference compound]
- decrease of circulating lymphocyte counts ([2]; after dexamethasone treatment): 50%
- diminution of gastrocnemius muscle mass ([2]; mouse, in vivo): 30%
- reduction of running capacity ([2]; mouse, in vivo): 50%

Molecule: CN(C)N(C)C(=O)[C@@]1(Cc2ccccc2)CCCN(C(=O)[C@@H](Cc2c[nH]c3ccccc23)NC(=O)C(C)(C)N)C1 [Anamorelin, reference compound]
- Muscle mass [1]: ✓

B1: LY2495655: Myostatin inhibitor, Eli Lilly (antibody, chains of the INN, looked up, V domains shown)
VH: EVQLVESGGGLVQPGGSLRLSCAASGLTFSRYPMSWVRQAPGKGLVWVSAITSSGGSTYYSDTVKGRFTISRDNAKNTLYLQMNSLRAEDTAVYYCARLPDYWGQGTLVTVSS
VL: EIVLTQSPGTLSLSPGERATLSCRASSSVSSSYLHWYQQKPGQAPRLLIYSTSNLVAGIPDRFSGSGSGTDFTLTISRLEPEDFAVYYCQHHSGYHFTFGGGTKVEIK
- Muscle mass [1]: ✓

B2: REGN1033: Myostatin inhibitor, Regeneron (antibody, chains of the INN, looked up, V domains shown)
VH: EVQVLESGGDLVQPGGSLRLSCAASGFTFSAYAMTWVRQAPGKGLEWVSAISGSGGSAYYADSVKGRFTISRDNSKNTVYLQMNSLRAEDTAVYYCAKDGAWKMSGLDVWGQGTTVIVSS
VL: DIQMTQSPASLSASVGDRVTITCRASQDISDYLAWYQQKPGKIPRLLIYTTSTLQSGVPSRFRGSGSGTDFTLTISSLQPEDVATYYCQKYDSAPLTFGGGTKVEIK
- Muscle mass [1]: ✓

B3: BYM338: Myostatin inhibitor, Novartis (antibody, chains of the INN, looked up, V domains shown)
VH: QVQLVQSGAEVKKPGASVKVSCKASGYTFTSSYINWVRQAPGQGLEWMGTINPVSGSTSYAQKFQGRVTMTRDTSISTAYMELSRLRSDDTAVYYCARGGWFDYWGQGTLVTVSS
VL: QSALTQPASVSGSPGQSITISCTGTSSDVGSYNYVNWYQQHPGKAPKLMIYGVSKRPSGVSNRFSGSKSGNTASLTISGLQAEDEADYYCGTFAGGSYYGVFGGGTKLTVL
- Muscle mass [1]: ✓

B4: PF-06252616: Myostatin inhibitor, Pfizer (antibody, chains of the INN, looked up, V domains shown)
VH: EVQLLESGGGLVQPGGSLRLSCAASGFTFSSYAMSWVRQAPGKGLEWVSTISSGGSYTSYPDSVKGRFTISRDNSKNTLYLQMNSLRAEDTAVYYCAKQDYAMNYWGQGTLVTVSS
VL: DIQMTQSPSSLSASVGDRVTITCKASQDVSTAVAWYQQKPGKAPKLLIYSASYRYTGVPSRFSGSGSGTDFTLTISSLQPEDFATYYCQQHYSTPWTFGGGTKVEIK
- Muscle mass [1]: ✓
